Test results as given in US5962314A, “Calcium receptor-active molecules” (priority 1997, dated 1999).
“Also recorded” adds a separate entry of the source. Where two headings read alike, the source gives them in different places.

Columns and labels:
[1] = target: T1, parathyroid cell calcium receptor (Homo sapiens, UniProt P41180); assay: mobilization of intracellular Ca2+ in human parathyroid cells; assay type: cell-based; details: neomycin B 10 or 20 μM, spermine 300 μM, Mg2+ 10 mM
T1 construct: Dissociated parathyroid cells were prepared from a parathyroid adenoma obtained by surgery from a patient with primary hyperparathyroidism; endogenous in cells; host or cells: human parathyroid cells (adenoma or hyperplastic glands from patients)
T1 sequence (P41180 20-1078): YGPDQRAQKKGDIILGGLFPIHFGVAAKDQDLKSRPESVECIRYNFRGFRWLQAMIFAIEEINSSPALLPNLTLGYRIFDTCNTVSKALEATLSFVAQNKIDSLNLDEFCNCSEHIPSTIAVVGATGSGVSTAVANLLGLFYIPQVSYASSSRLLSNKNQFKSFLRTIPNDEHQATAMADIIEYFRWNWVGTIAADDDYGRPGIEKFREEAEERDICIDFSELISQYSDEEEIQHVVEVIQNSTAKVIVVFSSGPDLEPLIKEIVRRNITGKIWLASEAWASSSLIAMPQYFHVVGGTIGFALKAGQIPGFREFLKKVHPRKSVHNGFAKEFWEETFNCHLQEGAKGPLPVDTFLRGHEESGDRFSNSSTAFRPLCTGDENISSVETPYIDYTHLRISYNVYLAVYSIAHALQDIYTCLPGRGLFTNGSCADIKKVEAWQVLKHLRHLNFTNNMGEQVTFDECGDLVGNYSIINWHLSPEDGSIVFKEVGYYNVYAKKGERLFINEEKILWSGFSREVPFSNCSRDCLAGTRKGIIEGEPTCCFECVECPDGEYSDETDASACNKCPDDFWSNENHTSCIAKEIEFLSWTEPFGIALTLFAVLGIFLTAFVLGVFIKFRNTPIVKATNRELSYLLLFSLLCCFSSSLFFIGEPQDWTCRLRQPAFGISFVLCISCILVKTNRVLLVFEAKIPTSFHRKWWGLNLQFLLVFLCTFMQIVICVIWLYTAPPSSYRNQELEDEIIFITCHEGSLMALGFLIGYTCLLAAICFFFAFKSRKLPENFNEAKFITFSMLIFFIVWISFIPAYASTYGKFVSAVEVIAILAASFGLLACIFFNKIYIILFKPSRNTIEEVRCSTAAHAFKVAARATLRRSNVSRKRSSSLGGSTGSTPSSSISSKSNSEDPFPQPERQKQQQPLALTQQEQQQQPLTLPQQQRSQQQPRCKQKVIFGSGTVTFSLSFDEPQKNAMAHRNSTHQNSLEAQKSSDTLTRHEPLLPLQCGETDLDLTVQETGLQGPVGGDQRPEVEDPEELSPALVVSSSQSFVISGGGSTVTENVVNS
Description: Human parathyroid glands, were obtained from patients undergoing surgical removal of parathyroid tissue for primary or uremic hyperparathyroidism (uremic HPT), and were treated similarly to bovine tissue.
The cells were then pelleted, resuspended in the same buffer, but lacking the ester, and incubated a further 15 minutes at 37° C. The cells were subsequently washed twice with PCB containing 0.5 mM CaCl2 and 0.5% BSA and maintained at room temperature (about 20° C.). Immediately before use, the cells were diluted five-fold with prewarmed 0.5 mM CaCl2 -PCB to obtain a final BSA concentration of 0.1%. The concentration of cells in the cuvette used for fluorescence recording was 1-2×10^6 /ml.

[2] = tested on: osteoclast calcium receptor; assay: [Ca2+]i in indo-1-loaded rat osteoclasts; assay type: cell-based
[3] = tested on: bovine parathyroid cells; assay: PTH secretion from bovine parathyroid cells; assay type: cell-based; details: bovine parathyroid cells
Description: PTH secretion was measured by first suspending cells in PCB containing 0.5 mM CaCl2 and 0.1% BSA.

[4] = tested on: PTH; assay: PTH levels in rats; assay type: in vivo, rat; details: NPS R-568 oral, rats
Source text: The fall in blood Ca^2+ at this time was paralleled by a proportional fall in the levels of blood total calcium.

[5] = tested on: serum parathyroid hormone; assay: serum PTH in a human; assay type: in vivo; details: single oral doses
Source text: A range of single oral doses was used to assess safety, tolerance, and changes in primary hyperparathyroidism markers (e.g., plasma concentrations of parathyroid hormone and ionized serum calcium) and of serum calcitonin.

[6] = target: T2, parathyroid cell calcium receptor (Bos taurus, UniProt P35384); assay: Cl- current in Xenopus oocytes injected with bovine parathyroid cell mRNA; assay type: cell-based; parameters: Whole pieces of gland were used to prepare mRNA that directs the expression of the calcium receptor in Xenopus oocytes; expressed in transfected cells; host or cells: Xenopus laevis oocytes injected with parathyroid poly(A)+ mRNA; details: oocytes expressing parathyroid calcium receptor; fendiline 100 μM
T2 sequence (P35384 20-1085): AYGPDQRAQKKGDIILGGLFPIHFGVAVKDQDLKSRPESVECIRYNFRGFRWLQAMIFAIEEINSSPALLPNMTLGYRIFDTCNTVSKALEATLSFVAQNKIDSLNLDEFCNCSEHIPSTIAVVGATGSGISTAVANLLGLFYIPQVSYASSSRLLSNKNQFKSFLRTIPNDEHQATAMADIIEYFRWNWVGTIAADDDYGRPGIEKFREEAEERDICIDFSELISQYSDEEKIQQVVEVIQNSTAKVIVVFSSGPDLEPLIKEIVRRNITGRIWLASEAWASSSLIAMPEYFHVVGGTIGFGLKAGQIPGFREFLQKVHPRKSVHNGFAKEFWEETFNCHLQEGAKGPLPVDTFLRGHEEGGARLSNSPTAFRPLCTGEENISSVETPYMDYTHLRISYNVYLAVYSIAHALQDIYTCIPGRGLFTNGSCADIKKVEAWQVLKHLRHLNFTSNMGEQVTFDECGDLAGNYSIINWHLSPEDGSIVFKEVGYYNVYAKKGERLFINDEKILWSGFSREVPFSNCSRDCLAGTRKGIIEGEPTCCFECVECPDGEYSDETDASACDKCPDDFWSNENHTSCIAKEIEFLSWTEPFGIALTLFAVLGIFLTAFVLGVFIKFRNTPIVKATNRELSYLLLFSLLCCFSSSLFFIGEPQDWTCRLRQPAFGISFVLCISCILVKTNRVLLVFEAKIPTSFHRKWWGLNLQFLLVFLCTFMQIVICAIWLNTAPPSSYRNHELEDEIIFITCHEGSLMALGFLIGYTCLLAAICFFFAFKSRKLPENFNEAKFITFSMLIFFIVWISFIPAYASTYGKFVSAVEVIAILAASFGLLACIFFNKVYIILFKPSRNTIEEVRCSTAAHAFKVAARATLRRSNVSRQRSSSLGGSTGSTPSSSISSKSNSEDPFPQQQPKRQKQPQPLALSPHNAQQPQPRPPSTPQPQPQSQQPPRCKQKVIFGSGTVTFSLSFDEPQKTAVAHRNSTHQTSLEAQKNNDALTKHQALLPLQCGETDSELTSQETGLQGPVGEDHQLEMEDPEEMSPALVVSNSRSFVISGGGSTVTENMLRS
Description: Following incubation, an oocyte was placed into a 100-μl plastic chamber and superfused with MBS at a flow rate of 0.5 ml/min using a peristaltic pump. Test molecules or inorganic polycations were added by rapidly moving the tubing into different buffers. Recording and current-passing electrodes were constructed from thin-wall capillary tubing pulled to a resistance of 1-3 Mohms and filled with 3 M KCl. […] Currents were recorded directly onto a strip chart recorder.

Structure (SMILES)	effect on [Ca2+]i in human parathyroid cells [1]	effect on [Ca2+]i in human parathyroid cells ([1]; listed as Neomycin B)	effect on [Ca2+]i in human parathyroid cells ([1]; listed as neomycin B)	effect on [Ca2+]i in osteoclasts [2]	effect on response to extracellular Ca2+ in osteoclasts [2]	effect on [Ca2+]i in osteoclasts ([2]; listed as neomycin)	effect on [Ca2+]i in osteoclasts ([2]; listed as neomycin B)	effect on PTH secretion [3]	effect on PTH, oral [4]	effect on plasma PTH in human [5]	effect on Cl- current / intracellular Ca2+ [6]
NC[C@@H]1O[C@H](O[C@H]2[C@@H](O)[C@H](O[C@@H]3[C@@H](O)[C@H](N)C[C@H](N)[C@H]3O[C@H]3O[C@H](CN)[C@@H](O)[C@H](O)[C@H]3N)O[C@@H]2CO)[C@H](N)[C@@H](O)[C@@H]1O [Neomycin]	large increase in [Ca^2+ ]i	not only a transient, but additionally a steady-state increase in [Ca^2+ ]i	transient and sustained increases in [Ca^2+ ]i	failed to evoke any increase in [Ca^2+ ]i; also recorded: Neither neomycin (10 mM) nor spermine (10 or 20 mM) caused increases in [Ca^2+ ]i; also recorded: fail to affect the calcium receptors on C-cells or osteoclasts	did not block the increase in [Ca^2+ ]i	none of these caused any large increase in [Ca^2+ ]i	fail to evoke increases in [Ca^2+ ]i	inhibited PTH secretion to the same extent as extracellular Ca^2+			
COc1cccc([C@@H](C)NCCCc2ccccc2Cl)c1 [NPS R-568, (R)-(+)-N-[3-(2-chlorophenyl)propyl]-α-methyl-3-methoxybenzylamine]									rapid, dose-dependent decrease in the plasma levels of PTH; also recorded: decreases in the levels of serum PTH	transient dose-dependent decrease in plasma PTH concentration	potent molecule active on Xenopus oocytes expressing the parathyroid cell calcium receptor
